Source: PMC8956739, “A synthetic lipopeptide targeting top-priority multidrug-resistant Gram-negative pathogens” (Nature Communications, 2022)
Residues, ends and D or L forms follow the SMILES beside them.

System: A. baumannii AB5075
Test: Transcriptomic analysis (RNA-Seq) of bacteria
Assay type: cell-based, Acinetobacter baumannii
Details: for log2FC, gene ABUW_RS01945 (acyl-CoA thioesterase II) / log2FC, gene ABUW_RS02545 (acyl-CoA thioesterase) / log2FC, gene ABUW_RS05045 (acyl-CoA thioesterase) / log2FC, gene ABUW_RS17575 (acyl-CoA thioesterase): pathway Fatty Acid and Lipid Degradation
Experimental: Mid-log phase A. baumannii AB5075 (~10^8 CFU/mL) in CaMHB was treated with colistin (2 and 8 μg/mL), F287, F319 or F365 (equimolar concentration to colistin) for 1 and 4 h. Total RNA was extracted using TRIzol Reagent (Invitrogen, USA) and RNeasy Mini Kit (Qiagen, Germany). Quality check of RNA samples was conducted with NanoDrop (Thermo Fisher Scientific, USA) and Agilent 2100 Bioanalyzer (Agilent Technologies, USA) for sequencing (150 bp paired-end) at Genewiz (Shanghai, China). Raw reads were aligned to A. baumannii AB5075 genome (GCF_000963815, https://www.ncbi.nlm.nih.gov/assembly/GCF_000963815.1/) using subread-aligner (subread 2.0.1) and summarized by featureCounts (subread 2.0.1). Principal component analysis (PCA) was conducted with mixOmics 6.14.1 in R. Differentially expressed genes were determined using limma 3.46.0 with a combination of fold change ≥ 2 and false discovery rate (FDR, by Benjamini–Hochberg algorithm) adjusted P-value ≤ 0.05 (n = 3). Enrichment analysis of gene differential expression in AB5075 was conducted using BioCyc (A. baumannii AB5075, version 25.5). UpSetR 1.4.0, ComplexHeatmap 2.6.2 and circlize 0.4.13 were used for data visualization. Raw data were deposited in Short Reads Archive (SRA) database under accession numbers SRR15235669-SRR15235725.

[1] = H vs Cont, 1h, RNA-Seq A. baumannii AB5075
[2] = H vs Cont, 4h, RNA-Seq A. baumannii AB5075
[3] = H, 4h vs 1h, RNA-Seq A. baumannii AB5075
[4] = L vs Cont, 1h, RNA-Seq A. baumannii AB5075
[5] = L vs Cont, 4h, RNA-Seq A. baumannii AB5075

Compound: CCCCCCCC(=O)N[C@@H](CCN)C(=O)N[C@H](C(=O)N[C@@H](CN)C(=O)N[C@H]1CCNC(=O)[C@H]([C@@H](C)O)NC(=O)[C@H](CCN)NC(=O)[C@H](CCN)NC(=O)[C@H](CC)NC(=O)[C@@H](CC(C)C)NC(=O)[C@H](CCN)NC1=O)[C@@H](C)O [Lipopeptide F287] (HELM PEPTIDE1{[CCCCCCCC(=O)[*:2]].[Dab].T.[NC[C@H](N[*:1])C(=O)[*:2]].[Dab].[Dab].[dL].[Abu].[Dab].[Dab].T}$PEPTIDE1,PEPTIDE1,5:R3-11:R2$$$V2.0)
- logFC (Differential gene expression for all genes), Geneid ABUW_RS00005 [1]: -0.2237
- logFC (Differential gene expression for all genes), Geneid ABUW_RS00020 [1]: 0.4813
- logFC (Fold change), gene ABUW_RS00010 [1]: 0.6329
- logFC (Fold change), gene ABUW_RS00030 [1]: -0.7589
- logFC (Fold change), gene ABUW_RS00035 [1]: 1.171
- logFC (Fold change), gene recF (ABUW_RS00015) [1]: 0.0004857
- log2FC, gene ABUW_RS01945 (acyl-CoA thioesterase II) (H vs Cont, 1h): 0.3471
- log2FC, gene ABUW_RS02545 (acyl-CoA thioesterase) (H vs Cont, 1h): 1.413
- log2FC, gene ABUW_RS05045 (acyl-CoA thioesterase) (H vs Cont, 1h): 0.6077
- log2FC, gene ABUW_RS17575 (acyl-CoA thioesterase) (H vs Cont, 1h): -1.9504
- logFC (Differential gene expression for all genes), Geneid ABUW_RS00005 [2]: -0.2595
- logFC (Differential gene expression for all genes), Geneid ABUW_RS00020 [2]: 0.07692
- logFC (Fold change), gene ABUW_RS00010 [2]: 1.124
- logFC (Fold change), gene ABUW_RS00030 [2]: -1.151
- logFC (Fold change), gene ABUW_RS00035 [2]: 1.24
- logFC (Fold change), gene recF (ABUW_RS00015) [2]: -1.077
- log2FC, gene ABUW_RS01945 (acyl-CoA thioesterase II) (H vs Cont, 4h): -0.6425
- log2FC, gene ABUW_RS02545 (acyl-CoA thioesterase) (H vs Cont, 4h): 1.263
- log2FC, gene ABUW_RS05045 (acyl-CoA thioesterase) (H vs Cont, 4h): 0.8039
- log2FC, gene ABUW_RS17575 (acyl-CoA thioesterase) (H vs Cont, 4h): -1.276
- 4h_1h logFC (Differential gene expression for all genes), Geneid ABUW_RS00005 [3]: -0.6471
- 4h_1h logFC (Differential gene expression for all genes), Geneid ABUW_RS00010 [3]: 0.4305
- 4h_1h logFC (Differential gene expression for all genes), Geneid ABUW_RS00015 [3]: -1.349
- 4h_1h logFC (Differential gene expression for all genes), Geneid ABUW_RS00020 [3]: 0.3991
- logFC (Differential gene expression for all genes), Geneid ABUW_RS00005 [4]: 0.09601
- logFC (Differential gene expression for all genes), Geneid ABUW_RS00020 [4]: 0.1731
- logFC (Fold change), gene ABUW_RS00010 [4]: 0.3235
- logFC (Fold change), gene ABUW_RS00030 [4]: -0.01757
- logFC (Fold change), gene ABUW_RS00035 [4]: 0.2853
- logFC (Fold change), gene recF (ABUW_RS00015) [4]: 0.06622
- log2FC, gene ABUW_RS01945 (acyl-CoA thioesterase II) (L vs Cont, 1h): 0.394
- log2FC, gene ABUW_RS02545 (acyl-CoA thioesterase) (L vs Cont, 1h): 0.4759
- log2FC, gene ABUW_RS05045 (acyl-CoA thioesterase) (L vs Cont, 1h): -0.04078
- log2FC, gene ABUW_RS17575 (acyl-CoA thioesterase) (L vs Cont, 1h): 0.9551
- logFC (Differential gene expression for all genes), Geneid ABUW_RS00005 [5]: 0.1326
- logFC (Differential gene expression for all genes), Geneid ABUW_RS00020 [5]: -0.2281
- logFC (Fold change), gene ABUW_RS00010 [5]: 0.09364
- logFC (Fold change), gene ABUW_RS00030 [5]: 0.3636
- logFC (Fold change), gene ABUW_RS00035 [5]: 0.2169
- logFC (Fold change), gene recF (ABUW_RS00015) [5]: 0.1608
- log2FC, gene ABUW_RS01945 (acyl-CoA thioesterase II) (L vs Cont, 4h): -0.1224
- log2FC, gene ABUW_RS02545 (acyl-CoA thioesterase) (L vs Cont, 4h): -0.4528
